Experimental data published in the supplement of paper PMC12463676, “Small-molecule dissolution of stress granules by redox modulation benefits ALS models” (Nature Chemical Biology, 2025).

What was measured:
lipoamide = compound: NC(=O)CCCCC1CCSS1 [lipoamide]; assay: thermal stability z-score vs DMSO; higher = more thermally stabilized by treatment; details: HeLa, lipoamide concentration 100 µM
Method: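 Cellular thermal proteome profiling in HeLa cells. Cells were treated with 100 µM lipoamide for 1 h, with or without 1 mM arsenate for a further 1 h, then heated to ten temperatures (37-66.3 °C), and soluble protein was quantified by TMT mass spectrometry relative to 0.1% DMSO controls. The thermal stability score (sum of log2 fold changes minus the abundance score) was transformed to a z-score; mean of n = 3 experiments.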

potassium arsenate = compound: O=[As]([O-])(O)O.[K+] [potassium arsenate]; assay: as above; details: HeLa; arsenate concentration 1 mM
Method: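 Cellular thermal proteome profiling in HeLa cells treated with 1 mM arsenate for 1 h (DMSO pretreatment), heated to ten temperatures (37-66.3 °C). Soluble protein was quantified by TMT mass spectrometry relative to DMSO controls; the thermal stability score was transformed to a z-score; mean of n = 3 experiments.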

[1] = arsenate co-treatment: 1 mM arsenate 1 h
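Note: each temperature applied for 3 min, abundance score taken as mean log2 fold change at the two lowest temperatures, z-score obtained by mean subtraction and division by SD.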

Sequence of UniProt Q9UHX1 (Q9UHX1 whole entry): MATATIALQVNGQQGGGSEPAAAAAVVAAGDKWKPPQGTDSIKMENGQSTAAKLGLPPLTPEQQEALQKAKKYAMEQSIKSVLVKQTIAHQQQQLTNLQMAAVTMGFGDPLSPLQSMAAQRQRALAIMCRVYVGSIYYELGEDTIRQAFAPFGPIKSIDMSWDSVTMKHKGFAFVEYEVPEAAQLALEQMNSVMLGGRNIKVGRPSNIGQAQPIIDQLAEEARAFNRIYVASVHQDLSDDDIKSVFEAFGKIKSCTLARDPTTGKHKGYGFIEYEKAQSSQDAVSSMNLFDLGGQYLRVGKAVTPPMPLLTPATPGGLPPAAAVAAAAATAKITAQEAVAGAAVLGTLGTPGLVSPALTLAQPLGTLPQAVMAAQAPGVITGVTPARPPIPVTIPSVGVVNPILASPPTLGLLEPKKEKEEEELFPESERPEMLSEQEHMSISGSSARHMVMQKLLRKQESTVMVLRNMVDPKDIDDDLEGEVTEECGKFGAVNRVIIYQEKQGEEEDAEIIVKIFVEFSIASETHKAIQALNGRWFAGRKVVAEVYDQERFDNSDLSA
Sequence of UniProt Q15102 (Q15102 whole entry): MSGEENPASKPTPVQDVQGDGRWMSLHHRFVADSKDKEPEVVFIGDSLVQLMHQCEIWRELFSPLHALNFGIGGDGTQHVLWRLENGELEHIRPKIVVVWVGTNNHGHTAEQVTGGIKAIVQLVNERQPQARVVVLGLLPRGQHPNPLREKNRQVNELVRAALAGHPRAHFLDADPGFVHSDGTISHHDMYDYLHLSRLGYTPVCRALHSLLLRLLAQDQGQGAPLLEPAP
Sequence of UniProt Q8TD26 (Q8TD26 whole entry): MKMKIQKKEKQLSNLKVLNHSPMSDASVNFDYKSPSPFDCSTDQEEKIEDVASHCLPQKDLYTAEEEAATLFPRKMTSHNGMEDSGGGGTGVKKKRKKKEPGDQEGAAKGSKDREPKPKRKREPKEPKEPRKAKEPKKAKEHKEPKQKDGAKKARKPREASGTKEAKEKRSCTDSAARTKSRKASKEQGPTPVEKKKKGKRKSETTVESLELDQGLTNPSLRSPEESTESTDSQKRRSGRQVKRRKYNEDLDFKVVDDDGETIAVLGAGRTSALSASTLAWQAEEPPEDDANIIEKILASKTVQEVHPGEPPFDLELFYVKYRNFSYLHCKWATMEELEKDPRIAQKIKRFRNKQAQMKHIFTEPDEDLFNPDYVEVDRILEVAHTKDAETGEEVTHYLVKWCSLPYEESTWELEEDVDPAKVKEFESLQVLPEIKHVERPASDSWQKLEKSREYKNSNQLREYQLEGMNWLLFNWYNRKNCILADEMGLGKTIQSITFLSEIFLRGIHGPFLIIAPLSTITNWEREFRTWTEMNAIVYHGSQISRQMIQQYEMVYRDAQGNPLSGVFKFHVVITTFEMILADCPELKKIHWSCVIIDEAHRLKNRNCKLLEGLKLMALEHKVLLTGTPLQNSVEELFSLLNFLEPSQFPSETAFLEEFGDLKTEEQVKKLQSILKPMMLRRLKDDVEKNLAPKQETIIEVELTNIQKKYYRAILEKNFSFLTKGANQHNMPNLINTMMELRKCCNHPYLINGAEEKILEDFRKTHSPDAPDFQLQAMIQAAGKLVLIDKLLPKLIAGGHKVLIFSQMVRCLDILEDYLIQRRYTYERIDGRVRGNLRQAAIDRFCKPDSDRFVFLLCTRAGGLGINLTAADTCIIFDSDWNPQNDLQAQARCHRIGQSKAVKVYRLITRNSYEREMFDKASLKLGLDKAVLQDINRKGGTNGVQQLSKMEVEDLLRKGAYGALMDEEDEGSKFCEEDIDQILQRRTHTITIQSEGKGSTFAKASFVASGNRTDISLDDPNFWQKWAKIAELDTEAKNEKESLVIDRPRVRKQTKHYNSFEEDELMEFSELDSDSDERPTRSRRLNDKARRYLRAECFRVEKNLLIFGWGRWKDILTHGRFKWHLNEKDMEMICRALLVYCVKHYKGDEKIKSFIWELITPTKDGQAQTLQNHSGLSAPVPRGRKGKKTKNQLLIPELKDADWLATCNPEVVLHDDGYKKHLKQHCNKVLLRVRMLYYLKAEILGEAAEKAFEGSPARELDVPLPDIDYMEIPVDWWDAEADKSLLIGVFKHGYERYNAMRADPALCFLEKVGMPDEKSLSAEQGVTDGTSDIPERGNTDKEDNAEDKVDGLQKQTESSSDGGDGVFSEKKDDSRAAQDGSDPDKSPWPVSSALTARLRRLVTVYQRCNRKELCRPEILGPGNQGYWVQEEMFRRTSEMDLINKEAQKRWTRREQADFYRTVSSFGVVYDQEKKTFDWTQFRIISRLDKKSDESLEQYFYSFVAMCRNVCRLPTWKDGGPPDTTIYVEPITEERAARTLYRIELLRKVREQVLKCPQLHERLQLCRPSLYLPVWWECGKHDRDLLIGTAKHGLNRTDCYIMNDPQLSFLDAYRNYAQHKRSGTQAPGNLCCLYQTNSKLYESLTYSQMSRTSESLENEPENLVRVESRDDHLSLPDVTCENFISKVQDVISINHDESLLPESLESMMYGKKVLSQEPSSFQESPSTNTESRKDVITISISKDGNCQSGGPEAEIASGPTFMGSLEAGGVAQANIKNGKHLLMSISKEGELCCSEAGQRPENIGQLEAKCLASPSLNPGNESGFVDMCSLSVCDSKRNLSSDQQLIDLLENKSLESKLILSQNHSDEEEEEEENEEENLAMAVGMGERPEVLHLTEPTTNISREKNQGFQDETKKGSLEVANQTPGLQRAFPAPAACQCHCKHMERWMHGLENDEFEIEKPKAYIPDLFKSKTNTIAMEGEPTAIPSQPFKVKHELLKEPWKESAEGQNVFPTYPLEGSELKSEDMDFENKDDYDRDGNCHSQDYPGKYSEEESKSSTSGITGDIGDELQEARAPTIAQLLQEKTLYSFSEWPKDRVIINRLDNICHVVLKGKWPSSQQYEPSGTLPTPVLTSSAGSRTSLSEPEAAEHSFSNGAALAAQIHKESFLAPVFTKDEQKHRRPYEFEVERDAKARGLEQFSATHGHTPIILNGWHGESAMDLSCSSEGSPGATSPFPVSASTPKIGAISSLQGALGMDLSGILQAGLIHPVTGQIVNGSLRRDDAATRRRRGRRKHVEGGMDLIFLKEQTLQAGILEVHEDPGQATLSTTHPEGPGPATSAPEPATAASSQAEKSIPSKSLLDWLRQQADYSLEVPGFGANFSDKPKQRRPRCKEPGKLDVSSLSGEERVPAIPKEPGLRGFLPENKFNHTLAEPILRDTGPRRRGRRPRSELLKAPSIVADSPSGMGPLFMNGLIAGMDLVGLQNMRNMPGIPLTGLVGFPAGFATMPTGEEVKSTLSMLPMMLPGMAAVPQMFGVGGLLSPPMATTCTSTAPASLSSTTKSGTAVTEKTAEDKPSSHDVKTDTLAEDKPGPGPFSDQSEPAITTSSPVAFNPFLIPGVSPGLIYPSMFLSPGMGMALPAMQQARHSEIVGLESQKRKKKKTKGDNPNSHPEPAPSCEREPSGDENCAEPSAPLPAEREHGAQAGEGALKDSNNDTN
Sequence of UniProt O14733 (O14733 whole entry): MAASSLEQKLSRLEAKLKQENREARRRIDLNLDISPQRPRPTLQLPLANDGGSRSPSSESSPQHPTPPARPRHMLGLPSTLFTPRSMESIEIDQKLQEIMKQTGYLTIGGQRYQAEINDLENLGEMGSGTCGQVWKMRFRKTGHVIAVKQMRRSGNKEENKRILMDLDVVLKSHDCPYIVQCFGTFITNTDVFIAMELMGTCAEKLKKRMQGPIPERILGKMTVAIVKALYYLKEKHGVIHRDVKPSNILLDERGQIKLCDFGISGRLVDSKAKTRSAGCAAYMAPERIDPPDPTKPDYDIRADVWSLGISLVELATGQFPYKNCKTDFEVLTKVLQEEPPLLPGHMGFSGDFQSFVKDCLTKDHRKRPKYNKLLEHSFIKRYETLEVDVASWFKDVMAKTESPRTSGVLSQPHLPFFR
Sequence of UniProt Q9BUL5 (Q9BUL5 whole entry): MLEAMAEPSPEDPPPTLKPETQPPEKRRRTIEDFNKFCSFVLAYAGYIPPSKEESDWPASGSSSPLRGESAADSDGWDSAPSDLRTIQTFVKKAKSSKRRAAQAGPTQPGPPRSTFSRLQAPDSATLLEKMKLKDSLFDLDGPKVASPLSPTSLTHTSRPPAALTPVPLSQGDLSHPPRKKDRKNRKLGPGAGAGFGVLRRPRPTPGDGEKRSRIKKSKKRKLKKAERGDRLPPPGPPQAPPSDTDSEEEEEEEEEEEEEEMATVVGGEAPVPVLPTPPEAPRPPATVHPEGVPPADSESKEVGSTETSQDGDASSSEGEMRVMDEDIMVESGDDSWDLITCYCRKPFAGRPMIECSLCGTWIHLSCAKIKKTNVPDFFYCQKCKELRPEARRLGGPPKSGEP
Sequence of UniProt P30533 (P30533 whole entry): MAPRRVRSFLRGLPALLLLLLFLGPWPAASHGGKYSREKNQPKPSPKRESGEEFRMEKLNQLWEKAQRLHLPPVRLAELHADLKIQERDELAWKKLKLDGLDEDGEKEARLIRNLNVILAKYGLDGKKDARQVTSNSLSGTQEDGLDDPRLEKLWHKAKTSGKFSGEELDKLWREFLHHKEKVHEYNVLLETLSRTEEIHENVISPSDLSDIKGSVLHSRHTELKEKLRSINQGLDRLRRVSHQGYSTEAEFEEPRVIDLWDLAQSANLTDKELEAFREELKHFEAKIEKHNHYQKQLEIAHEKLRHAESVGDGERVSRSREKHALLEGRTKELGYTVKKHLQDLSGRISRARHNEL
Sequence of UniProt P50616 (P50616 whole entry): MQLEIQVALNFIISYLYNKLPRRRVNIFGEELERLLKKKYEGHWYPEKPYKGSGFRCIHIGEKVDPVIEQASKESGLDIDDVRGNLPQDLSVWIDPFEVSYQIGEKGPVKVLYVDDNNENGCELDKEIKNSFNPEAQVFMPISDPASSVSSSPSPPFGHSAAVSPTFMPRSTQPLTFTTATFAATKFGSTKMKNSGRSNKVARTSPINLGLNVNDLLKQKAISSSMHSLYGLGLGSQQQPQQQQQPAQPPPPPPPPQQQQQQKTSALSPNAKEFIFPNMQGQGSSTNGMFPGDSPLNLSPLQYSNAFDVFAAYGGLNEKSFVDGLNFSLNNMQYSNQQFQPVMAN

Row | Target | thermal stability z-score (lipoamide; [1]) | thermal stability z-score (lipoamide; arsenate co-treatment: none) | thermal stability z-score (potassium arsenate)
1 | FYCO1 (UniProt Q9BQS8) | -0.321 | -0.354 | -0.152
2 | RBM14 (UniProt Q96PK6) | -0.169 | -0.0944 | -0.803
3 | PAFAH1B3 (UniProt Q15102) | 0.574 | 0.345 | 0.275
4 | ZC3H4 (UniProt Q9UPT8) | 0.112 | -0.278 | -1.7
5 | MRPS31 (UniProt Q92665) | -0.961 | 0.411 | -0.0848
6 | SLC35E1 (UniProt Q96K37) | -2.03 | -1.92 | -1.27
7 | PSEN1 (UniProt P49768) | 1.23 | -2 | -2.52
8 | CHD6 (UniProt Q8TD26) | -8.33e-05 | -0.00133 | -0.0483
9 | RNF167 (UniProt Q9H6Y7) | -0.267 | -0.216 | 0.669
10 | PIEZO1 (UniProt Q92508) | -0.342 | 0.0689 | 0.19
11 | MGAT4B (UniProt Q9UQ53) | 0.713 | -0.264 | 0.26
12 | TOB1 (UniProt P50616) | -1.37 | -0.305 | 0.159
13 | LYN (UniProt P07948) | 0.264 | 0.362 | -0.89
14 | MRPL35 (UniProt Q9NZE8) | -0.257 | -0.048 | 0.129
15 | DPAGT1 (UniProt Q9H3H5) | -0.304 | 0.836 | -0.109
16 | CTBP1 (UniProt Q13363) | 1.13 | -0.19 | 0.629
17 | HTATSF1 (UniProt O43719) | 0.386 | 0.479 | -0.763
18 | CCDC174 (UniProt Q6PII3) | -0.407 | -0.734 | -0.984
19 | PUF60 (UniProt Q9UHX1) | 0.11 | 0.816 | 0.789
20 | STXBP4 (UniProt Q6ZWJ1) | -0.119 | 0.0111 | -0.111
21 | LRPAP1 (UniProt P30533) | -1.07 | -0.56 | -0.32
22 | CPSF2 (UniProt Q9P2I0) | -0.00974 | -0.136 | -0.339
23 | PHF23 (UniProt Q9BUL5) | 0.843 | 0.376 | -3.81
24 | CENPE (UniProt Q02224) | 0.141 | 0.088 | 0.013
25 | MAP2K7 (UniProt O14733) | -0.121 | 0.341 | 0.54
26 | NECTIN2 (UniProt Q92692) | 0.434 | 0.196 | 0.0945
27 | TXNDC9 (UniProt O14530) | -0.0714 | -0.127 | 0.0909
